# Measured values reported in patent publication US9044474B2, “Compositions and methods for increasing drug efficacy in cancer” (The Ohio State University, priority 2010, dated 2015).
# Where a name gives a salt, the structure may show the parent alone.
# How the values were obtained:
# [1] = system: CLL cells; experiment: LC3 confocal immunofluorescence (autophagosome formation) in CLL cells in vitro; format: cell-based, human; details: for LC3 aggregation / LC3 fluorescence (autophagosome formation) versus vehicle: CLL patient cells, 4 hours, rapamycin 5 μM, thapsigargin 1 μM, F-ara-A 5 μM, chlorambucil 20 μM, CAL-101 1 μM, rituximab 10 μg/ml, flavopiridol 2 μM, CQ 0.5 μM
# Procedure: (§1) After 4 hours exposure to agents, cells were washed in phosphate-buffered saline (PBS) and made adherent on a microscope slide by centrifugation in a Cytospin3 (Shandon) centrifuge. Immediately after cytospin, cells were fixed in cold acetone. […] Nuclei were stained blue with DAPI (Vector Laboratories, Burlingame, Calif.). Images were taken using a 60× objective and 4× digital zoom with Olympus Fluoview 1000 Laser Scanning Confocal microscope at the Ohio State University Campus Microscopy and Imaging Facility. ATF6 antibody was purchased from LifeSpan Biosciences (Seattle, Wash.) and Nrf2 was from Santa Cruz Biotechnology (Santa Cruz, Calif.). Nuclei were evaluated for ATF6 and Nrf2 using confocal microscopy to collect Z stacks, approximately 45 slices per cell, 0.2 μm each.
# LC3 intensity and number of dots per cell were both assessed in the fluorescence images. Integrated intensity was measured using Metamorph v.7.0. To calculate the number of “dots” (local extreme point in pixel-intensity profile at which a number of high-intensity pixels form a cluster), a Gaussian filter was first applied to reduce noise. Cells were enumerated electronically by an improved watershed-based algorithm. To quantify co-localization, two binary nuclei images—red (R) and green (G)—are obtained. The correlation value is calculated as the number of white pixels of (R&G) divided by the number of pixels of (RIG), where (R&G) is the intersection of R and G, and (RIG) is the union of R and G. The program used for cell counts and measurement of correlation index is based on MatLab software (Natick, Mass.) and it was developed by members of Department of Biomedical Informatics, The Ohio State University.
# [2] = system: CLL cells; experiment: LC3-Lamp2 co-localization (autophagosome-lysosome fusion) by confocal microscopy in CLL cells; format: cell-based, human; details: CLL cells, 4 hours, flavopiridol 2 μM
# Procedure: as §1
# LC3 intensity and number of dots per cell were both assessed in the fluorescence images. Integrated intensity was measured using Metamorph v.7.0. To calculate the number of “dots” (local extreme point in pixel-intensity profile at which a number of high-intensity pixels form a cluster), a Gaussian filter was first applied to reduce noise. Cells were enumerated electronically by an improved watershed-based algorithm. To quantify co-localization, two binary nuclei images—red (R) and green (G)—are obtained. […]
# [3] = system: p62; experiment: p62 immunoblot in CLL cells treated in vitro; format: cell-based, human; details: flavopiridol 2 μM, 4 hours
# Procedure: (§2) Proteins extracted from whole cell lysates (50 μg/lane) were separated on polyacrylamide gels and transferred on nitrocellulose membrane. Antibodies used for immunoblots included LC3, IRE1α, TRAF2, PI3K III, ATG4C, ATG5-12, UVRAG, Beclin-1 (Cell Signaling, Boston, Mass.), GAPDH, Nrf2, ASK1, ULK1 (Santa Cruz Biotechnology), and Bif-1, ATG14-Barkor (Sigma-Aldrich, St Louis, Mo.). Species-appropriate secondary antibodies were obtained from BioRad Laboratories (Hercules, Calif.). Following antibody incubations, proteins were detected using a chemiluminescent substrate (BioRad Laboratories). For co-immunoprecipitations, TrueBlot beads (eBiosciences, San Diego, Calif.) and One-hour IP Western kit (GenScript, Piscataway, N.J.) were used according to manufacturer protocols. Quantification was done using FluorChem Q (Alpha Innotech, San Leandro Calif.).
# [4] = system: XBP1, IRE1, GRP78; experiment: Real-time RT-PCR of ER stress genes in CLL cells in vitro; format: cell-based, human; details: CLL cells n=5; flavopiridol 2 μM, thapsigargin 1 μM, tunicamycin 3 μg/ml; CD52 control gene
# Procedure: (§3) RNA was extracted using TRIzol reagent (Invitrogen, Carlsbad, Calif.) and purified using QIAGEN RNeasy columns (Qiagen, Valencia, Calif.). cDNA was prepared with SuperScript First-Strand Synthesis System (Invitrogen). Real-time PCR was performed using primers purchased from Applied Biosystems. Detection was performed using an ABI Prism 7700 sequence detection system (Applied Biosystems). Average relative expression (treatment compared with vehicle) was normalized to the internal control gene CD52. Primers to detect spliced XBP1 were designed using Primer 3 software and purchased from IDT. Samples were analyzed on 10% acrylamide gels.
# [5] = system: XBP1, IRE1, GRP78, CHOP; experiment: Real-time RT-PCR of ER stress genes in CLL cells from patients undergoing flavopiridol treatment; format: in vivo, human; details: CLL patients n=10, 4.5 hour
# Procedure: as §3
# [6] = system: cell lines 293T, RAW and 697, normal B cells; experiment: XBP1 splicing PCR in normal B cells and cell lines; format: cell-based
# Procedure: as §3
# [7] = system: ATF6; experiment: ATF6 nuclear translocation by confocal fluorescence microscopy in CLL cells; format: cell-based, human; details: CLL patient cells, flavopiridol 2 μM or thapsigargin 1 μM, 4 hours
# Procedure: After 4 hours exposure to agents, cells were washed in phosphate-buffered saline (PBS) and made adherent on a microscope slide by centrifugation in a Cytospin3 (Shandon) centrifuge. Immediately after cytospin, cells were fixed in cold acetone. Next, the cells were incubated in blocking solution (2% bovine serum albumin in PBS) and stained for LC3 (Cell Signaling, Boston, Mass.)) and Lamp2 (Santa Cruz Biotechnology, Santa Cruz, Calif.) by incubating separately with the respective primary antibodies over night, in 4° C., followed by incubation with fluorescent secondary antibodies (Invitrogen, Carlsbad, Calif.): Alexa fluor 594 (red) anti-rabbit for LC3 and Alexa fluor 488 (green) anti-mouse for Lamp2. Nuclei were stained blue with DAPI (Vector Laboratories, Burlingame, Calif.). Images were taken using a 60× objective and 4× digital zoom with Olympus Fluoview 1000 Laser Scanning Confocal microscope at the Ohio State University Campus Microscopy and Imaging Facility. ATF6 antibody was purchased from LifeSpan Biosciences (Seattle, Wash.) and Nrf2 was from Santa Cruz Biotechnology (Santa Cruz, Calif.). Nuclei were evaluated for ATF6 and Nrf2 using confocal microscopy to collect Z stacks, approximately 45 slices per cell, 0.2 μm each.
# [8] = system: 697 cells; experiment: ChIP assay of ATF6 at GRP78 promoter in 697 cells; format: cell-based; details: relative to IgG control
# Procedure: (§4) In brief, cells were treated with 37% formaldehyde to ensure crosslinking of proteins to DNA. Cells were lysed and sonicated to shear the chromatin to fragments of approximately 500 bp. Sheared chromatin was incubated with ATF6 antibody (LifeSpan Biosciences, Seattle, Wash.), followed by precipitation, washing and reversing of the crosslinks Purified DNA was then analyzed by real-time quantitative PCR using primers to the GRP78 promoter region. Primers were designed using Primer 3 software and purchased from IDT (Coralville, Iowa).
# [9] = system: ATF6 at GRP78 promoter region; experiment: ChIP assay of ATF6 at GRP78 promoter in cells from CLL patients undergoing flavopiridol treatment; format: in vivo, human; details: CLL patient samples before and 4.5 hour after flavopiridol infusion
# Procedure: as §4
# [10] = system: IRE1-ASK1-TRAF2 complex; experiment: Co-immunoprecipitation of IRE1-ASK1-TRAF2 complex in 697 cells; format: cell-based
# Procedure: as §2
# [11] = system: JNK1 and p38MAPK; experiment: Immunoblot of phosphorylated JNK1 and p38MAPK in CLL cells in vitro; format: cell-based, human; details: flavopiridol 2 μM, thapsigargin 1 μM, F-ara-A 5 μM
# Procedure: as §2
# [12] = system: CLL cells; experiment: Intracellular calcium in CLL cells; format: cell-based, human; details: CLL cells treated with flavopiridol
smiles,measurement,setting,value
"CN1CC[C@H](c2c(O)cc(O)c3c(=O)cc(-c4ccccc4Cl)oc23)[C@H](O)C1 [flavopiridol, (cis-5,7-dihydroxy-2-(2-chlorophenyl)-8-[4-(3-hydroxy-1-methyl)-piperidin-yl]-1-benzopyran-4-one)hydrochloride]","LC3 fluorescence time course, flavopiridol vs vehicle","[1]; CLL cells n=3, flavopiridol washed out after 4 hours","significant (P=0.001) at 3, 4 and 8 hours, and decreased to levels comparable to vehicle alone at 12 and 24 hours"
same,LC3 aggregation / LC3 fluorescence (autophagosome formation) versus vehicle,[1],formation of autophagosomes was observed
same,LC3 aggregation / LC3 fluorescence (autophagosome formation) versus vehicle,[1]; listed as Flavopiridol,comparable to the increase seen with rapamycin
same,"autophagy flux by LC3-Lamp2 co-localization, agent alone",[2],unrestricted autophagy flux was demonstrated by co-localization of LC3 and Lamp2
same,p62 protein level,[3],p62 levels are decreased
same,"expression of ER stress genes XBP1, IRE1 and GRP78",[4],"significant, time-dependent increase in expression of ER stress genes XBP1, IRE1 and GRP78"
same,"expression of XBP1, IRE1 and GRP78 genes, pre-treatment vs end of infusion",[5],"significant increases in XBP1, IRE1 and GRP78 genes"
same,XBP1 splicing,[6],XBP1 splicing is detected
same,ATF6 nuclear translocation,[7],increased nuclear translocation
same,binding of GRP78 promoter region by ATF6,[8],enhanced binding of the GRP78 promoter region by ATF6
same,binding of GRP78 promoter region by ATF6,[9],results were similar
same,ASK1 and IRE1 protein in TRAF2 co-immunoprecipitates,[10],increased levels of ASK1 and IRE1 protein in TRAF2 co-immunoprecipitates
same,phosphorylation of JNK1 and p38MAPK,[11],induced the phosphorylation of both JNK1 and p38MAPK
same,intracellular calcium,[12],increase of intracellular calcium
